Results on 30 compounds are retold here after patent publication US7951815B2, “Substituted 1,4,8-triazaspiro [4,5]decan-2-one compounds” (Gruenenthal GmbH, priority 2004, dated 2011).

One may read the inhibition as the drop in the measured response relative to a control, in per cent.

SMILES strings stand for the structures.

The target of one experiment is T1, 5-HT transporter (Rattus norvegicus, UniProt P31652).
T1 construct: synaptosomes of rat brain areas are freshly isolated; from tissue; host or cells: rat brain synaptosomes (P2 fraction) from marrow and pons
T1 sequence (P31652 whole entry): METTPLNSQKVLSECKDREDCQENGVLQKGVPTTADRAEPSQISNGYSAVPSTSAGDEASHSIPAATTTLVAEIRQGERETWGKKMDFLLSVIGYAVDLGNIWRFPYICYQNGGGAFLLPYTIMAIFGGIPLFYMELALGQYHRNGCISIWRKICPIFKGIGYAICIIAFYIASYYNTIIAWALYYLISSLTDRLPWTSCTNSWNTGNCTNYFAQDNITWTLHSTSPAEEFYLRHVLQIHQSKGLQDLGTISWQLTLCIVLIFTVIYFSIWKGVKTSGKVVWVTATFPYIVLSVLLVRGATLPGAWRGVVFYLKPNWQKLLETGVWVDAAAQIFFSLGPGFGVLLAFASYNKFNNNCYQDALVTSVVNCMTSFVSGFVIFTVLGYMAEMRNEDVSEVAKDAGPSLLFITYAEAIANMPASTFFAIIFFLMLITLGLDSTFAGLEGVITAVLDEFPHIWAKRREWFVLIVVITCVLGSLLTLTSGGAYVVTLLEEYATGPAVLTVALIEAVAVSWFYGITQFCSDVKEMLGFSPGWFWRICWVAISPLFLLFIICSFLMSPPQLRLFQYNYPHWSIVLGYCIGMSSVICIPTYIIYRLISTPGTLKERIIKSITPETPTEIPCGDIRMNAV
The experiment in a line: Inhibition of 5-HT uptake in rat brain synaptosomes. It is filed as biochemical. The conditions noted are these: Table III, rat, 1 μM; for inhibition at 1 µM: read-out: Uptake 5-HT, % inhibition.

A further experiment concerns NA transporter. Nature of the experiment: Inhibition of noradrenaline uptake in rat brain synaptosomes. In kind it is biochemical. The conditions noted are these: Table III.
Experiment [1] relates to batrachotoxin (BTX) binding site of the sodium channel. Nature of the experiment: Affinity to the batrachotoxin (BTX) binding site of the sodium channel. As to conditions: Table III; rat cerebrocortex synaptosomes; test concentration not given.

As for `CCCC(C)C(=O)N1CCC2(CC1)NCC(=O)N2Cc1ccccc1C#N` (stereo not shown) [Example 71, 2-[8-(2-Methylpentanoyl)-2-oxo-1,4,8-triazaspiro[4,5]dec-1-ylmethyl]benzonitrile], the inhibition at 1 µM on 5-HT transporter worked out at 53%. Also, in the experiment on NA transporter, the “Uptake (NA), rat, 10 μM, % inhibition” value was 52%. As for `CCSc1ncccc1C(=O)N1CCC2(CC1)NC(Cc1ccccc1)C(=O)N2C` (stereo not shown) [Example 78, 3-Benzyl-8-(2-ethylsulfanylpyridin-3-carbonyl)-1-methyl-1,4,8-triazaspiro[4,5]decan-2-one], the inhibition at 1 µM at 5-HT transporter amounted to 56%. The “Uptake (NA), rat, 10 μM, % inhibition” value with NA transporter came out at 33%.

For the compound `Cc1cccc(C(=O)N2CCC3(CC2)NCC(=O)N3CCOc2ccccc2)c1` [Example 86, 8-(3-Methylbenzoyl)-1-(2-phenoxyethyl)-1,4,8-triazaspiro[4,5]decan-2-one], on 5-HT transporter, the inhibition at 1 µM is 50%. Moreover, the “Uptake (NA), rat, 10 μM, % inhibition” value with NA transporter is 38%. With `Cc1nnsc1C(=O)N1CCC2(CC1)NCC(=O)N2Cc1ccccc1` [Example 88, 1-Benzyl-8-(4-methyl[1,2,3]thiadiazole-5-carbonyl)-1,4,8-triazaspiro[4,5]decan-2-one], the inhibition at 1 µM on 5-HT transporter worked out at 34%. In addition, in the experiment on NA transporter, the “Uptake (NA), rat, 10 μM, % inhibition” value is listed as 32%. Consider `N#Cc1ccccc1CN1C(=O)CNC12CCN(C(=O)C=Cc1ccccc1Cl)CC2` [Example 89, 2-{8-[3-(2-Chlorophenyl)acryloyl]-2-oxo-1,4,8-triazaspiro[4,5]dec-1-ylmethyl}benzonitrile], for which, on 5-HT transporter, the inhibition at 1 µM was 43%. Further, the “Uptake (NA), rat, 10 μM, % inhibition” value in the experiment with NA transporter was found to be 41%. `CC(C)CC1NC2(CCN(C(=O)c3cccc(Cl)c3)CC2)NC1=O` (stereo not shown) [Example 90, 8-(3-Chlorobenzoyl)-3-isobutyl-1,4,8-triazaspiro[4,5]decan-2-one]: at 5-HT transporter, the inhibition at 1 µM worked out at 41%. Further, the “Uptake (NA), rat, 10 μM, % inhibition” value in the experiment on NA transporter is on record as 35%. The corresponding values for `COc1cc(OC)cc(C(=O)N2CCC3(CC2)NC(=O)C(CC(C)C)N3)c1` (stereo not shown) [Example 92, 8-(3,5-Dimethoxybenzoyl)-3-isobutyl-1,4,8-triazaspiro[4,5]decan-2-one] are 30% and 30%. Turning to `CCCCN1C(=O)C(CCSC)NC12CCN(C(=O)Cc1ccc(OC)c(OC)c1)CC2` (stereo not shown) [Example 97, 1-Butyl-8-[2-(3,4-dimethoxyphenyl)acetyl]-3-(2-methylsulfanylethyl)-1,4,8-triazaspiro[4,5]decan-2-one], the inhibition at 1 µM at 5-HT transporter is 67%. Further, the “Uptake (NA), rat, 10 μM, % inhibition” value in the experiment on NA transporter was found to be 30%.

For `CC(C)C1NC2(CCN(C(=O)c3ccncc3)CC2)N(Cc2ccccc2)C1=O` (stereo not shown) [Example 98, 1-Benzyl-3-isopropyl-8-(pyridin-4-carbonyl)-1,4,8-triazaspiro[4,5]decan-2-one], at 5-HT transporter, the inhibition at 1 µM was 57%. Moreover, in the experiment with NA transporter, the “Uptake (NA), rat, 10 μM, % inhibition” value was found to be 36%. `CSCCC1NC2(CCN(C(=O)CC3NC(=O)NC3=O)CC2)N(Cc2ccc(F)cc2)C1=O` (stereo not shown) [Example 100, 5-{2-[1-(4-Fluorobenzyl)-3-(2-methylsulfanylethyl)-2-oxo-1,4,8-triazaspiro[4,5]dec-8-yl]-2-oxoethyl}imidazolidine-2,4-dione]: the inhibition at 1 µM at 5-HT transporter was 42%. Further, the “Uptake (NA), rat, 10 μM, % inhibition” value in the experiment on NA transporter stood at 32%.

Regarding `CC(C)C1NC2(CCN(C(=O)c3ccco3)CC2)N(Cc2ccccc2C#N)C1=O` (stereo not shown) [Example 103, 2-[8-(Furan-2-carbonyl)-3-isopropyl-2-oxo-1,4,8-triazaspiro[4,5]dec-1-ylmethyl]benzonitrile], at 5-HT transporter, the inhibition at 1 µM turned out to be 34%. Also, in the experiment with NA transporter, the “Uptake (NA), rat, 10 μM, % inhibition” value is reported as 30%. For the compound `CSCCC1NC2(CCN(C(=O)c3ccccn3)CC2)N(Cc2ccc(F)cc2)C1=O` (stereo not shown) [Example 109, 1-(4-Fluorobenzyl)-3-(2-methylsulfanylethyl)-8-(pyridin-2-carbonyl)-1,4,8-triazaspiro[4,5]decan-2-one], at 5-HT transporter, the inhibition at 1 µM was found to be 50%. Moreover, the “Uptake (NA), rat, 10 μM, % inhibition” value with NA transporter is reported as 32%. The like results for `COCC(=O)N1CCC2(CC1)NC(CCSC)C(=O)N2Cc1cccc(C#N)c1` (stereo not shown) [Example 112, 3-[8-(2-Methoxyacetyl)-3-(2-methylsulfanylethyl)-2-oxo-1,4,8-triazaspiro[4,5]dec-1-ylmethyl]benzonitrile] were, in that order, 43% and 42%. For the compound `CC(=O)OC(C(=O)N1CCC2(CC1)NC(Cc1ccccc1)C(=O)N2C)c1ccccc1` (stereo not shown) [Example 113, Ethyl 2-(3-benzyl-1-methyl-2-oxo-1,4,8-triazaspiro[4,5]dec-8-yl)-2-oxo-1-phenylacetate], on 5-HT transporter, the “Uptake 5-HT, rat, 1 μM, % inhibition” value came out at 35%. In addition, in the experiment with NA transporter, the “Uptake (NA), rat, 10 μM, % inhibition” value came out at 46%. For the compound `Cc1onc(-c2c(F)cccc2Cl)c1C(=O)N1CCC2(CC1)NC(=O)C(Cc1ccccc1)N2` (stereo not shown) [Example 115, 3-Benzyl-8-[3-(2-chloro-6-fluorophenyl)-5-methylisoxazole-4-carbonyl]-1,4,8-triazaspiro[4,5]decan-2-one], at 5-HT transporter, the inhibition at 1 µM is 30%. For the same compound, the “Uptake (NA), rat, 10 μM, % inhibition” value in the experiment with NA transporter is listed as 34%. For the compound `CC(C)C1NC2(CCN(C(=O)c3c(F)cccc3Cl)CC2)NC1=O` (stereo not shown) [Example 116, 8-(2-Chloro-6-fluorobenzoyl)-3-isopropyl-1,4,8-triazaspiro[4,5]decan-2-one], at 5-HT transporter, the inhibition at 1 µM turned out to be 37%. The “Uptake (NA), rat, 10 μM, % inhibition” value in the experiment with NA transporter turned out to be 34%. Take `CSCCC1NC2(CCN(C(=O)c3cccc(F)c3)CC2)N(C)C1=O` (stereo not shown) [Example 121, 8-(3-Fluorobenzoyl)-1-methyl-3-(2-methylsulfanylethyl)-1,4,8-triazaspiro[4,5]decan-2-one]: the inhibition at 1 µM at 5-HT transporter stood at 41%. Besides, the “Uptake (NA), rat, 10 μM, % inhibition” value in the experiment with NA transporter was 37%. Turning to `O=C1NC2(CCN(C(=O)c3ccc4ccccc4c3)CC2)NC1Cc1ccccc1` (stereo not shown) [Example 122, 3-Benzyl-8-(naphthalin-2-carbonyl)-1,4,8-triazaspiro[4,5]decan-2-one], the inhibition at 1 µM on 5-HT transporter was 34%. The “Uptake (NA), rat, 10 μM, % inhibition” value in the experiment with NA transporter came to 38%. As to `CCCCN1C(=O)C(CCSC)NC12CCN(C(=O)c1ccc(C#N)cc1)CC2` (stereo not shown) [Example 125, 4-[1-Butyl-3-(2-methylsulfanylethyl)-2-oxo-1,4,8-triazaspiro[4,5]decan-8-carbonyl]benzonitrile], the inhibition at 1 µM on 5-HT transporter was 44%. For the same compound, the “Uptake (NA), rat, 10 μM, % inhibition” value with NA transporter was 36%. Consider `CN1C(=O)C(Cc2ccccc2)NC12CCN(C(=O)CC(C)(C)C)CC2` (stereo not shown) [Example 126, 3-Benzyl-8-(3,3-dimethylbutyryl)-1-methyl-1,4,8-triazaspiro[4,5]decan-2-one], for which the “Uptake (NA), rat, 10 μM, % inhibition” value in the experiment on NA transporter turned out to be 44%. In experiment [1], this compound registered a BTX inhibition of 34. Turning to `Cc1ccc(C(=O)N2CCC3(CC2)NC(Cc2ccccc2)C(=O)N3C)cc1F` (stereo not shown) [Example 148, 3-Benzyl-8-(3-fluoro-4-methylbenzoyl)-1-methyl-1,4,8-triazaspiro[4,5]decan-2-one], the inhibition at 1 µM on 5-HT transporter was determined as 43%. For the same compound, in the experiment on NA transporter, the “Uptake (NA), rat, 10 μM, % inhibition” value is 32%. The like results for `C#CCN1C(=O)C(Cc2ccccc2)NC12CCN(C(=O)c1c(F)cccc1Cl)CC2` (stereo not shown) [Example 210, 3-Benzyl-8-(2-chloro-6-fluorobenzoyl)-1-prop-2-ynyl-1,4,8-triazaspiro[4,5]decan-2-one] were, in that order, 51% and 31%. The like results for `COc1cc(C(=O)N2CCC3(CC2)NCC(=O)N3Cc2ccccc2F)cc(OC)c1OC` [Example 271, 1-(2-Fluorobenzyl)-8-(3,4,5-trimethoxybenzoyl)-1,4,8-triazaspiro[4,5]decan-2-one] were, in that order, 44% and 31%. With `COC(=O)c1ccc(CN2C(=O)CNC23CCN(C(=O)c2ccnc(Cl)c2)CC3)cc1` [Example 272, Methyl 4-[8-(2-Chloropyridin-4-earbonyl)-2-oxo-1,4,8-triazaspiro[4,5]dec-1-ylmethyl]benzoate], in the experiment on NA transporter, the “Uptake (NA), rat, 10 μM, % inhibition” value stood at 31%. Consider `N#Cc1cccc(CN2C(=O)CNC23CCN(C(=O)c2cc(C(F)(F)F)cc(C(F)(F)F)c2)CC3)c1` [Example 273, 3-[8-(3,5-Bis-trifluoromethylbenzoyl)-2-oxo-1,4,8-triazaspiro[4,5]dec-1-ylmethyl]benzonitrile], for which, on 5-HT transporter, the inhibition at 1 µM was 51%. Also, in the experiment on NA transporter, the “Uptake (NA), rat, 10 μM, % inhibition” value amounted to 38%. As for `CCOC(=O)CN1C(=O)C(Cc2ccccc2)NC12CCN(C(=O)c1ccc(S(N)(=O)=O)cc1)CC2` (stereo not shown) [Example 276, Ethyl [3-benzyl-2-oxo-8-(4-sulfamoylbenzoyl)-1,4,8-triazaspiro[4,5]dec-1-yl]acetate], at 5-HT transporter, the inhibition at 1 µM was determined as 95%. The “Uptake (NA), rat, 10 μM, % inhibition” value with NA transporter was 46%.

Consider `CCOC(=O)C(C)(C)C(=O)N1CCC2(CC1)NC(CC(C)C)C(=O)N2CCCCOC(C)=O` (stereo not shown) [Example 278, Ethyl 2-[1-(4-acetoxybutyl)-3-isobutyl-2-oxo-1,4,8-triazaspiro[4,5]dec-8-yl]-1,1-dimethyl-2-oxo-acetate], for which, on 5-HT transporter, the “Uptake 5-HT, rat, 1 μM, % inhibition” value is on record as 39%. Moreover, in the experiment on NA transporter, the “Uptake (NA), rat, 10 μM, % inhibition” value stood at 56%. For the compound `C=CCN1C(=O)C(CCSC)NC12CCN(C(=O)C1CC1)CC2` (stereo not shown) [Example 281, 1-Allyl-8-cyclopropanecarbonyl-3-(2-methylsulfanylethyl)-1,4,8-triazaspiro[4,5]decan-2-one], the inhibition at 1 µM at 5-HT transporter was determined as 56%. In addition, the “Uptake (NA), rat, 10 μM, % inhibition” value in the experiment with NA transporter was found to be 30%. As for `C=CCN1C(=O)C(CCSC)NC12CCN(C(=O)CCc1ccccc1)CC2` (stereo not shown) [Example 328, 1-Allyl-3-(2-methylsulfanylethyl)-8-(3-phenylpropionyl)-1,4,8-triazaspiro[4,5]decan-2-one], at 5-HT transporter, the inhibition at 1 µM came out at 32%. For the same compound, the “Uptake (NA), rat, 10 μM, % inhibition” value in the experiment on NA transporter is recorded as 33%.

With `CCOC(=O)CN1C(=O)C(CCSC)NC12CCN(C(=O)c1ccccc1C(=O)OCc1ccccc1)CC2` (stereo not shown) [Example 332, Benzyl 2-[1-ethoxycarbonylmethyl-3-(2-methylsulfanylethyl)-2-oxo-1,4,8-triazaspiro[4,5]decan-8-carbonyl]benzoate], in the experiment on NA transporter, the “Uptake (NA), rat, 10 μM, % inhibition” value was 36%.
